Measurements taken from US12312627B2, “Microorganisms and methods for production of 4-hydroxybutyrate, 1,4-butanediol and related compounds” (priority 2013, dated 2025).

T1: endogenous alcohol dehydrogenase backflux activity (Escherichia coli, UniProt P27250)
T1 sequence (P27250 1-339): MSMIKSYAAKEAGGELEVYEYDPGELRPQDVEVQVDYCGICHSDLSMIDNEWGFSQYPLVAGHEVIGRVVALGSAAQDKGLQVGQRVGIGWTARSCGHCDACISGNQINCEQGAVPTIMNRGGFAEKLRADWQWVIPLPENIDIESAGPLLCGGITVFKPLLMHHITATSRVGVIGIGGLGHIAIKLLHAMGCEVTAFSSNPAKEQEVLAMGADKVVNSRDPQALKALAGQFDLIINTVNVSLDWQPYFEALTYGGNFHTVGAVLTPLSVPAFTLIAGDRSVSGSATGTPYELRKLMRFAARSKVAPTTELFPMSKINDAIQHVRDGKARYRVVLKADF

B1: yjgB: E. coli alcohol dehydrogenase yjgB (GenBank NP_418690.4) identified as carrying backflux activity (protein, UniProt P27250 1-339, looked up)
Aldehyde reductase Ahr: T1 sequence (P27250 1-339)

Columns and labels:
[1] = system: aminotransferase from Leishmania mexicana; details: enzyme expressed in E. coli; cited from earlier work
cytochrome bd oxidase = details: cited from earlier work
cytochrome bo oxidase = cytochrome bo oxidase (Escherichia coli, UniProt P0ABI8); details: read-out: Km for O2; cited from earlier work
cytochrome bo oxidase, sequence (P0ABI8 whole entry): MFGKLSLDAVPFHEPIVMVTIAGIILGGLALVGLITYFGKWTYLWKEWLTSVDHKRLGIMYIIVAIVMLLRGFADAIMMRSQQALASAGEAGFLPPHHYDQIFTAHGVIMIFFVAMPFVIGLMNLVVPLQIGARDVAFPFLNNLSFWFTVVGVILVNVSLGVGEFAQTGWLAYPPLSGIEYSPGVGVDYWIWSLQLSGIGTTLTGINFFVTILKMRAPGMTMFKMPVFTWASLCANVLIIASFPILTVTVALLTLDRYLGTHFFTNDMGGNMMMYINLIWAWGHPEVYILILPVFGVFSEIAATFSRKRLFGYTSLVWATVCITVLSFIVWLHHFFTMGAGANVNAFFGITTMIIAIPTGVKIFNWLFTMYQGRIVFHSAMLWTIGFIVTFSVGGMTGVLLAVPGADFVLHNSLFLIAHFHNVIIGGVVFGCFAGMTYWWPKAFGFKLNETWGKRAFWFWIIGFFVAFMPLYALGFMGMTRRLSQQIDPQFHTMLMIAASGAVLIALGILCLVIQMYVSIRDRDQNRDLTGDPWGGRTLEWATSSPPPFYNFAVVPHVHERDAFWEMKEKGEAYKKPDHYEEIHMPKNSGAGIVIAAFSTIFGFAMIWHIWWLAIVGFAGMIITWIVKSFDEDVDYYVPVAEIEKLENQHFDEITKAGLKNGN
cytochrome bo oxidase, sequence (P0ABJ1 25-315 partner): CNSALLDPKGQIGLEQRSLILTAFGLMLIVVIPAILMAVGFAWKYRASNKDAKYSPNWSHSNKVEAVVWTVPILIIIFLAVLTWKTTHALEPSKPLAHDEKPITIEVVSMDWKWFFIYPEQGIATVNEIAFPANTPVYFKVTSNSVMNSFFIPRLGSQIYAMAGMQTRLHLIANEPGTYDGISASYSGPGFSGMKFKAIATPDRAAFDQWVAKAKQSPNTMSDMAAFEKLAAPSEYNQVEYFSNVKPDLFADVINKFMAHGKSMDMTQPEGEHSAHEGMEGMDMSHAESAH
cytochrome bo oxidase, sequence (P0ABJ3 whole entry partner): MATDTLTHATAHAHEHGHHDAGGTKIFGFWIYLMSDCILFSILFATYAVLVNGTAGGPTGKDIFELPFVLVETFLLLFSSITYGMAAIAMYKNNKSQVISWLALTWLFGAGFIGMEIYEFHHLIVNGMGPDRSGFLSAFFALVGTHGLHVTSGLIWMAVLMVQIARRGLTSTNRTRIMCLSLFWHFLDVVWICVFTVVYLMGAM
cytochrome bo oxidase, sequence (P0ABJ6 whole entry partner): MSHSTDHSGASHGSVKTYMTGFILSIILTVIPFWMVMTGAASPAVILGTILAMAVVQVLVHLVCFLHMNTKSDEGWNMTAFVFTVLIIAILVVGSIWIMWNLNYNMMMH

[2] = molecular target: T1, endogenous alcohol dehydrogenase backflux activity; details: purified streptavidin-tagged protein, in the presence of NADP+
Description: The sample was purified while following the backflux activity.
The yjgB gene was cloned with a streptavidin tag, expressed and purified in order to characterize its properties.

Molecule | activity (considered 100% on tyrosine) [1] [%] | also measured
CSCC[C@H](N)C(=O)O [methionine] | 25 | –
Cytochrome bd-II | – | In vivo sp act (mol O2/mol cytochrome bd/s) (cytochrome bd oxidase; from Bekker et al. 2009): 70 ± 12 mol O2/mol cytochrome bd/s; Vmax (mol O/mol cytochrome bd/s) (cytochrome bd oxidase; from Bekker et al. 2009): 818 ± 75 mol O/mol cytochrome bd/s
O=O [Sample O2] | – | Km (cytochrome bd oxidase; read-out: Km for O2): 0.01 µM; Km (cytochrome bo oxidase): ~1 µM
N[C@@H](Cc1c[nH]c2ccccc12)C(=O)O [tryptophan] | 85 | –
CC(C)C[C@H](N)C(=O)O [leucine] | 25 | –
N[C@@H](Cc1ccccc1)C(=O)O [phenylalanine] | 90 | –
N[C@@H](Cc1ccc(O)cc1)C(=O)O [tyrosine] | 100 | –
B1 | – | activity with BDO as a substrate [2]: robust activity
